{"source": "ChEMBL document CHEMBL1122681", "about": "“(Acylaryloxy)acetic acid diuretics. 5. [(2-Alkyl- and 2,2-disubstituted-1,3-dioxo-5-indanyl)oxy]acetic acids” (J Med Chem, 1984)", "key": {"[1]": {"assay": "volume of urine at 3 mg/kg", "type": "ADME, organism-based", "parameters": "dose 3 mg/kg", "conditions": "in vivo"}, "[2]": {"assay": "volume of urine at 81 mg/kg", "type": "ADME, organism-based", "parameters": "dose 81 mg/kg", "conditions": "in vivo"}, "[3]": {"assay": "volume of urine at 9 mg/kg", "type": "ADME, organism-based", "parameters": "dose 9 mg/kg", "conditions": "in vivo"}, "Canis familiaris [4]": {"species": "Canis familiaris", "assay": "volume of urine in dog", "type": "ADME, organism-based, Canis lupus familiaris", "conditions": "in vivo"}, "Canis familiaris [5]": {"tested_on": "Canis familiaris", "assay": "Compound was evaluated for diuretic activity, in female mongrel dogs by measuring volume of urine, after iv administration of 5 mg/kg (control/compound treatment results) Control = 2", "type": "ADME, organism-based, Canis lupus familiaris", "parameters": "dose 5 mg/kg, route intravenous", "conditions": "dog, in vivo"}, "Pan troglodytes [6]": {"tested_on": "Pan troglodytes", "assay": "Compound was evaluated for diuretic activity in chimpanzee measured as increase in volume of urine at 1 mg/kg", "type": "functional"}, "Pan troglodytes [7]": {"tested_on": "Pan troglodytes", "assay": "Compound was evaluated for diuretic activity in chimpanzee measured as increase in volume of urine at 5 mg/kg", "type": "functional"}, "Pan troglodytes [8]": {"tested_on": "Pan troglodytes", "assay": "Compound was evaluated for diuretic activity in chimpanzee measured as clearance of […] and urate after intra venous administration of 5 mg/kg.", "type": "functional, Urine"}, "Pan troglodytes [9]": {"tested_on": "Pan troglodytes", "assay": "Compound was evaluated for diuretic activity in chimpanzee measured as clearance of […] and urate after peroral administration of 5 mg/kg", "type": "functional, Urine", "conditions": "route oral"}, "Pan troglodytes [10]": {"tested_on": "Pan troglodytes", "assay": "Compound was evaluated for diuretic activity in chimpanzee measured as increase in the number of microequivalents of Na+ /min at 1 mg/kg", "type": "functional, Urine"}, "Pan troglodytes [11]": {"tested_on": "Pan troglodytes", "assay": "Compound was evaluated for diuretic activity in chimpanzee measured as increase in the number of microequivalents of Na+ /min at 5 mg/kg", "type": "functional, Urine"}, "Pan troglodytes [12]": {"tested_on": "Pan troglodytes", "assay": "Compound was evaluated for diuretic activity in chimpanzee measured as increase in the number of microequivalents of Cl- electrolyte/min at 1 mg/kg", "type": "functional, Urine"}, "Pan troglodytes [13]": {"tested_on": "Pan troglodytes", "assay": "Compound was evaluated for diuretic activity in chimpanzee measured as increase in the number of microequivalents of Cl- electrolyte/min at 5 mg/kg", "type": "functional, Urine"}, "Pan troglodytes [14]": {"tested_on": "Pan troglodytes", "assay": "Compound was evaluated for diuretic activity in chimpanzee measured as increase in the number of microequivalents of K+ /min at 1 mg/kg", "type": "functional, Urine"}, "Canis familiaris [15]": {"tested_on": "Canis familiaris", "assay": "Compound was evaluated for diuretic activity, in female mongrel dogs by measuring amount of K+ in urine after iv administration of 5 mg/kg (control/compound treatment results) Control = 11", "type": "functional, Canis lupus familiaris"}, "Canis familiaris [16]": {"tested_on": "Canis familiaris", "assay": "Compound was evaluated for diuretic activity, in female mongrel dogs by measuring amount of Cl- in urine after iv administration of 5 mg/kg (control/compound treatment results) Control = 62", "type": "functional, Canis lupus familiaris"}, "Pan troglodytes [17]": {"tested_on": "Pan troglodytes", "assay": "Compound was evaluated for diuretic activity in chimpanzee measured as increase in the number of microequivalents of K+ /min at 5 mg/kg", "type": "functional, Urine"}, "Canis familiaris [18]": {"tested_on": "Canis familiaris", "assay": "Compound was evaluated for diuretic activity, in female mongrel dogs by measuring amount of Na+ in urine after iv administration of 5 mg/kg (control/compound treatment results) Control = 107", "type": "functional, Canis lupus familiaris"}, "Canis familiaris [19]": {"tested_on": "Canis familiaris", "assay": "Compound was evaluated for diuretic activity, administered orally in female mongrel dogs (5 mg/kg) measured as milliequivalents of Cl-", "type": "functional, Canis lupus familiaris, Urine"}, "Canis familiaris [20]": {"tested_on": "Canis familiaris", "assay": "Compound was evaluated for diuretic activity, administered orally in female mongrel dogs (5 mg/kg) measured as milliequivalents of K", "type": "functional, Canis lupus familiaris, Urine"}, "Canis familiaris [21]": {"tested_on": "Canis familiaris", "assay": "Compound was evaluated for diuretic activity, administered orally in female mongrel dogs (5 mg/kg) measured as milliequivalents of Na", "type": "functional, Canis lupus familiaris, Urine"}, "Rattus norvegicus [22]": {"tested_on": "Rattus norvegicus", "assay": "Compound was evaluated for diuretic activity administered orally in female rats measured as milliequivalents of Na+x 100 / cage at 81 mg/kg", "type": "functional, Urine", "conditions": "route oral"}, "Rattus norvegicus [23]": {"tested_on": "Rattus norvegicus", "assay": "Compound was evaluated for diuretic activity administered orally in female rats measured as milliequivalents of Na+x 100 / cage at 9 mg/kg", "type": "functional, Urine", "conditions": "route oral"}, "Rattus norvegicus [24]": {"tested_on": "Rattus norvegicus", "assay": "Compound was evaluated for diuretic activity administered orally in female rats measured as milliequivalents of Cl-+x 100 / cage at 27 mg/kg", "type": "functional, Urine", "conditions": "route oral"}, "Rattus norvegicus [25]": {"tested_on": "Rattus norvegicus", "assay": "Compound was evaluated for diuretic activity administered orally in female rats measured as milliequivalents of Cl-x 100 / cage at 3 mg/kg", "type": "functional, Urine", "conditions": "route oral"}, "Rattus norvegicus [26]": {"tested_on": "Rattus norvegicus", "assay": "Compound was evaluated for diuretic activity administered orally in female rats measured as milliequivalents of Cl-x 100 / cage at 81 mg/kg", "type": "functional, Urine", "conditions": "route oral"}, "Rattus norvegicus [27]": {"tested_on": "Rattus norvegicus", "assay": "Compound was evaluated for diuretic activity administered orally in female rats measured as milliequivalents of Cl-x 100 / cage at 9 mg/kg", "type": "functional, Urine", "conditions": "route oral"}, "Rattus norvegicus [28]": {"tested_on": "Rattus norvegicus", "assay": "Compound was evaluated for diuretic activity administered orally in female rats measured as milliequivalents of K+x 100 / cage at 27 mg/kg", "type": "functional, Urine", "conditions": "route oral"}, "Rattus norvegicus [29]": {"tested_on": "Rattus norvegicus", "assay": "Compound was evaluated for diuretic activity administered orally in female rats measured as milliequivalents of K+x 100 / cage at 3 mg/kg", "type": "functional, Urine", "conditions": "route oral"}, "Rattus norvegicus [30]": {"tested_on": "Rattus norvegicus", "assay": "Compound was evaluated for diuretic activity administered orally in female rats measured as milliequivalents of K+x 100 / cage at 81 mg/kg", "type": "functional, Urine", "conditions": "route oral"}, "Rattus norvegicus [31]": {"tested_on": "Rattus norvegicus", "assay": "Compound was evaluated for diuretic activity administered orally in female rats measured as milliequivalents of K+x 100 / cage at 9 mg/kg", "type": "functional, Urine", "conditions": "route oral"}, "Rattus norvegicus [32]": {"tested_on": "Rattus norvegicus", "assay": "Compound was evaluated for diuretic activity administered orally in female rats measured as milliequivalents of Na+x 100 / cage at 27 mg/kg", "type": "functional, Urine", "conditions": "route oral"}, "Rattus norvegicus [33]": {"tested_on": "Rattus norvegicus", "assay": "Compound was evaluated for diuretic activity administered orally in female rats measured as milliequivalents of Na+x 100 / cage at 3 mg/kg", "type": "functional, Urine", "conditions": "route oral"}, "[34]": {"assay": "volume of urine at 27 mg/kg", "type": "ADME, organism-based", "parameters": "dose 27 mg/kg", "conditions": "in vivo"}}}
{"smiles": "CC1(c2ccccc2)Cc2cc(OCC(=O)O)c(Cl)c(Cl)c2C1=O", "note": "(centres undefined) [INDACRINONE]", "values": [{"measurement": "Urine volume", "setting": "[1]", "value": 28, "unit": "mL"}, {"measurement": "Urine volume", "setting": "[2]", "value": 35, "unit": "mL"}, {"measurement": "Urine volume", "setting": "[3]", "value": 29, "unit": "mL"}, {"measurement": "Urine volume", "setting": "Canis familiaris [4]", "value": 267, "unit": "mL"}, {"measurement": "Urine volume", "setting": "Canis familiaris [5]", "value": 8, "unit": "mL/min"}, {"measurement": "Increase in volume", "setting": "Pan troglodytes [6]", "value": 14.8, "unit": "mL/min"}, {"measurement": "Increase in volume", "setting": "Pan troglodytes [7]", "value": 3.6, "unit": "mL/min"}, {"measurement": "Delta C urate / delta C insulin", "setting": "Pan troglodytes [8]", "value": 0.55}, {"measurement": "Delta C urate / delta C insulin", "setting": "Pan troglodytes [9]", "value": 0.332}, {"measurement": "Increase", "setting": "Pan troglodytes [10]", "value": 2383}, {"measurement": "Increase", "setting": "Pan troglodytes [11]", "value": 409}, {"measurement": "Increase", "setting": "Pan troglodytes [12]", "value": 2624}, {"measurement": "Increase", "setting": "Pan troglodytes [13]", "value": 554}, {"measurement": "Increase", "setting": "Pan troglodytes [14]", "value": 171}, {"measurement": "Activity", "setting": "Canis familiaris [15]", "value": 62, "unit": "u equiv min-1"}, {"measurement": "Activity", "setting": "Canis familiaris [16]", "value": 1010, "unit": "u equiv min-1"}, {"measurement": "Increase", "setting": "Pan troglodytes [17]", "value": 53}, {"measurement": "Activity", "setting": "Canis familiaris [18]", "value": 920, "unit": "u equiv min-1"}, {"measurement": "Activity", "setting": "Canis familiaris [19]", "value": 26}, {"measurement": "Activity", "setting": "Canis familiaris [20]", "value": 2.2}, {"measurement": "Activity", "setting": "Canis familiaris [21]", "value": 12}, {"measurement": "Activity", "setting": "Rattus norvegicus [22]", "value": 189}, {"measurement": "Activity", "setting": "Rattus norvegicus [23]", "value": 97}, {"measurement": "Activity", "setting": "Rattus norvegicus [24]", "value": 223}, {"measurement": "Activity", "setting": "Rattus norvegicus [25]", "value": 85}, {"measurement": "Activity", "setting": "Rattus norvegicus [26]", "value": 303}, {"measurement": "Activity", "setting": "Rattus norvegicus [27]", "value": 163}, {"measurement": "Activity", "setting": "Rattus norvegicus [28]", "value": 61}, {"measurement": "Activity", "setting": "Rattus norvegicus [29]", "value": 32}, {"measurement": "Activity", "setting": "Rattus norvegicus [30]", "value": 85}, {"measurement": "PActivity", "setting": "Rattus norvegicus [31]", "value": 50}, {"measurement": "Activity", "setting": "Rattus norvegicus [32]", "value": 129}, {"measurement": "Activity", "setting": "Rattus norvegicus [33]", "value": 86}, {"measurement": "Urine volume", "setting": "[34]", "value": 31, "unit": "mL"}]}
